This experiment relates to Xanthomonas maltophilia. The experiment is described as follows: In vitro bactericidal activity, viable bacterial counts in proteose peptone. Format: cell-based. Conditions: free tobramycin 3,12 μg/ml, entrapped tobramycin 3,08 μg/ml, MIC >5 μg/ml. How it is done:
To culture tubes containing proteose peptone (29 ml) a minimal number of 10^8 CFU of bacteria in logarithmic phase (1 ml) and of one of the following preparations (100 μl) were added at time zero: free tobramycin, control liposomes or PBS. Experiments were done in triplicate. At times 1, 3, 6, and 16 hours following the addition of antibiotic or controls, 2 ml of samples were collected and serial 10-fold dilutions were made and spread in triplicate on proteose peptone agar plates for gram negative strains and on […] for S. aureus. CFU were counted after 24-hour and 48-hourS incubations at 37° C. under 5% CO2. Counts were expressed in log CFU per ml of culture media.

Consider `NC[C@H]1O[C@H](O[C@H]2[C@H](O)[C@@H](O[C@H]3O[C@H](CO)[C@@H](O)[C@H](N)[C@H]3O)[C@H](N)C[C@@H]2N)[C@H](N)C[C@@H]1O` [Free tobramycin, tobramycin], for which the Viable bacterial counts is, setting by setting: (0 h) 3.7 × 10^10 cfu; (1 h) 3.00 × 10^12 cfu; (3 h) 8.20 × 10^14 cfu; (6 h) 7.80 × 10^16 cfu.

Source of the values: patent US6613352B2, “Low-rigidity liposomal formulation” (Universite de Montreal, priority 1999, dated 2003).
